Laboratory results reported in publication PMC2914301 (Cancer research, 2009).
Entries after “also recorded” stand apart in the source; their conditions may differ.

What was measured:
phospho-Ser^241-PDK1 = test: Western analysis of phospho-Ser241-PDK1 in BxPC-3 cells; format: cell-based, Human; settings: at higher concentrations
PH domain of PDK1 [1] = target: T1, PH domain of PDK1 (Homo sapiens, UniProt O15530); test: SPR direct binding to PDK1 PH domain
T1 sequence (O15530 459-550 limits assumed): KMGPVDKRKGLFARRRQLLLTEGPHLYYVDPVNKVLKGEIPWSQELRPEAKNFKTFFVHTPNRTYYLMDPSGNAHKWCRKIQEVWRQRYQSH

[2] = Preliminary single-dose toxicity, i.p.; format: in vivo; settings: single doses up to 250 mg/kg i.p.; preliminary studies
Panc-1 = test: Morphologic apoptosis assay in Panc-1 cells; format: cell-based, Human
MiaPaCa-2 = test: Morphologic apoptosis assay in MiaPaCa-2 cells; format: cell-based, Human
GSK3β and p70S6K = test: Western analysis of AKT downstream targets in BxPC-3 cells; format: cell-based, Human; settings: Western blot
PH domain of PDK1 [3] = target: T1, PH domain of PDK1; test: SPR competitive binding
[4] = system: BxPC-3 pancreatic cancer xenografts; test: Antitumor activity against BxPC-3 xenografts in scid mice; format: in vivo; settings: 125 mg/kg i.p. twice a day for 5 days

In the case of `CCCCCCCCCCCCc1ccc(S(=O)(=O)Nc2nncs2)cc1` [Compound 27, 4-dodecyl-N-(1,3,4-thiadiazol-2-yl) benzenesulfonamide], the “Effect on phosphorylation of PDK1 on Ser241 (in words)” value (phospho-Ser^241-PDK1) is reported as “slightly affected”, the Kd (PH domain of PDK1 [1]) is reported as 90.1 µM and the “Toxicity of single doses” value [2] is reported as “no toxicity”. For the same molecule, the “Apoptosis at 20 μmol/L” value (Panc-1) was 40.0 ± 2.9%, the “Apoptosis at 20 μmol/L” value (MiaPaCa-2) was 31.3 ± 1.6% and the “Effect on GSK3β and p70S6K phosphorylation (in words)” value (GSK3β and p70S6K) was “inhibited in a dose-dependent manner”. For the same molecule, the Ki (PH domain of PDK1 [3]) was 5.5 µM and the Antitumor activity [4] was “significant antitumor activity with cessation of tumor growth and even regression; also recorded: complete cessation of tumor growth and even some regression”.
